Measured values from the supplement of paper PMC10307832.

What was measured:
Experiment in all cases: relative viability (nuclei count vs DMSO), 5 days (fraction); higher = more cells survive
[1] = compound: OCc1c[nH]c2ccccc12 [Indole-3-carbinol] + CC(=O)c1c(C)c2cnc(Nc3ccc(N4CCNCC4)cn3)nc2n(C2CCCC2)c1=O [Palbociclib] (partner 0.5 µM)
Procedure, shortened: (§1)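 Cells from lung cancer lines were seeded into 1536-well plates and, one day later, dosed by pin tool. Treatments were either a single drug or a fixed dose of an anchor drug with five library-drug doses (not always all listed) in √10 steps. After 5 days, nuclei were stained in a one-step fixation (final 0.05% Triton X-100, 1% formaldehyde, 1 ug/ml Hoechst) and counted on 4× images, and relative viability is the treated-to-vehicle nuclei ratio, as the median of duplicate plates.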

[2] = compound: OCc1c[nH]c2ccccc12 [Indole-3-carbinol] + Nc1nc2[nH]cc(CCc3ccc(C(=O)N[C@@H](CCC(=O)O)C(=O)O)cc3)c2c(=O)[nH]1 [Pemetrexed] (partner 0.2 µM)
Procedure, shortened: as §1

[3] = compound: OCc1c[nH]c2ccccc12 [Indole-3-carbinol] + CC(C)C[C@H](NC(=O)[C@H](Cc1ccccc1)NC(=O)c1cnccn1)B(O)O [Bortezomib] (partner 0.002 µM)
Procedure, shortened: as §1

[4] = compound: OCc1c[nH]c2ccccc12 [Indole-3-carbinol] + CS(=O)(=O)N1CCN(Cc2cc3nc(-c4cccc5[nH]ncc45)nc(N4CCOCC4)c3s2)CC1 [Pictilisib] (partner 1 µM)
Procedure, shortened: as §1

[5] = compound: OCc1c[nH]c2ccccc12 [Indole-3-carbinol] + CS(=O)(=O)CCNCc1ccc(-c2ccc3ncnc(Nc4ccc(OCc5cccc(F)c5)c(Cl)c4)c3c2)o1 [Lapatinib] (partner 2 µM)
Procedure, shortened: as §1

Row | Cell Line | relative viability ([1]; first compound 0.253 µM) | relative viability ([1]; first compound 0.8 µM) | relative viability ([1]; first compound 2.53 µM) | relative viability ([1]; first compound 8 µM) | relative viability ([2]; first compound 0.253 µM) | relative viability ([2]; first compound 0.8 µM) | relative viability ([2]; first compound 2.53 µM) | relative viability ([2]; first compound 8 µM) | relative viability ([3]; first compound 0.253 µM) | relative viability ([3]; first compound 0.8 µM) | relative viability ([3]; first compound 2.53 µM) | relative viability ([3]; first compound 8 µM) | relative viability ([4]; first compound 0.253 µM) | relative viability ([4]; first compound 0.8 µM) | relative viability ([4]; first compound 2.53 µM) | relative viability ([4]; first compound 8 µM) | relative viability ([5]; first compound 0.253 µM) | relative viability ([5]; first compound 0.8 µM) | relative viability ([5]; first compound 2.53 µM) | relative viability ([5]; first compound 8 µM)
1 | NCI-H2228 | 0.75 | 0.771 | 0.645 | 0.78 | 0.368 | 0.335 | 0.334 | 0.344 | 1.17 | 0.876 | 0.914 | 0.911 | 0.514 | 0.374 | 0.349 | 0.506 | 1.12 | 1.17 | 1.2 | 1.32
2 | NCI-H2347 | 0.426 | 0.471 | 0.419 | 0.407 | 0.425 | 0.415 | 0.437 | 0.41 | 1.2 | – | 0.926 | 0.868 | 0.673 | 0.532 | 0.719 | 0.599 | 0.937 | 1.03 | 1.08 | 0.672
3 | NCI-H2405 | 0.513 | 0.554 | 0.553 | 0.491 | 1.15 | 1.04 | 0.972 | 1.03 | 0.985 | 0.983 | 1 | 0.963 | 0.49 | 0.472 | 0.489 | 0.483 | 1.06 | 1.08 | 1.16 | 1.02
4 | NCI-H3122 | 0.188 | 0.196 | 0.176 | 0.183 | 0.195 | 0.21 | 0.203 | 0.203 | 1.01 | 1.04 | 1.07 | 1.04 | 0.553 | 0.673 | 0.592 | 0.588 | 1.05 | 1.01 | 1.04 | 1.05
5 | PC-3 [JPC-3] | 0.574 | 0.568 | 0.557 | 0.507 | 1.17 | 1.16 | 0.958 | 1.15 | 0.851 | 0.89 | 0.863 | 0.741 | 0.817 | 0.801 | 0.649 | 0.73 | 0.462 | 0.441 | 0.399 | 0.439
